Measurements published in paper PMC8998838, “Functional Characterization of the Solute Carrier LAT-1 (SLC7A5/SLC2A3) in Human Brain Capillary Endothelial Cells with Rapid UPLC-MS/MS Quantification of Intracellular Isotopically Labelled L-Leucine” (International Journal of Molecular Sciences, 2022).

Target: T1, L-type amino acid transporter 1 (LAT-1/SLC7A5) (Homo sapiens, UniProt Q01650)
T1 construct: with CD98 (4F2hc; SLC3A2, also printed as SLC2A3)
Assay: inhibition of [[…]6, […]]-L-leucine uptake in hCMEC/D3 cells, UPLC-MS/MS
Assay type: cell-based

T1 sequence (Q01650 whole entry): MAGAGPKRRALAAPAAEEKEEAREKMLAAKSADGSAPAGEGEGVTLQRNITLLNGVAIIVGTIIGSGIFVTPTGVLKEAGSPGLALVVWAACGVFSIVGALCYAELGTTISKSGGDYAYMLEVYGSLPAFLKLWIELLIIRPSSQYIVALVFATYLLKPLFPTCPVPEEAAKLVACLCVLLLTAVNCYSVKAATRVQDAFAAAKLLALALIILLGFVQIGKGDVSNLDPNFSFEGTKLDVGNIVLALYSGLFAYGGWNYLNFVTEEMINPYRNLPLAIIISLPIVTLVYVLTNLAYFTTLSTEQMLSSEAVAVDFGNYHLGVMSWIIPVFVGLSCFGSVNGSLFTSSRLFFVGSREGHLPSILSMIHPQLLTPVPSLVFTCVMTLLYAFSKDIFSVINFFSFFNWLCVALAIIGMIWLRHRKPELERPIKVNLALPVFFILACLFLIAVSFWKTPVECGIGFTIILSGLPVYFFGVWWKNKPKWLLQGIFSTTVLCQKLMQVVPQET
T1 sequence (P08195 103-630 partner): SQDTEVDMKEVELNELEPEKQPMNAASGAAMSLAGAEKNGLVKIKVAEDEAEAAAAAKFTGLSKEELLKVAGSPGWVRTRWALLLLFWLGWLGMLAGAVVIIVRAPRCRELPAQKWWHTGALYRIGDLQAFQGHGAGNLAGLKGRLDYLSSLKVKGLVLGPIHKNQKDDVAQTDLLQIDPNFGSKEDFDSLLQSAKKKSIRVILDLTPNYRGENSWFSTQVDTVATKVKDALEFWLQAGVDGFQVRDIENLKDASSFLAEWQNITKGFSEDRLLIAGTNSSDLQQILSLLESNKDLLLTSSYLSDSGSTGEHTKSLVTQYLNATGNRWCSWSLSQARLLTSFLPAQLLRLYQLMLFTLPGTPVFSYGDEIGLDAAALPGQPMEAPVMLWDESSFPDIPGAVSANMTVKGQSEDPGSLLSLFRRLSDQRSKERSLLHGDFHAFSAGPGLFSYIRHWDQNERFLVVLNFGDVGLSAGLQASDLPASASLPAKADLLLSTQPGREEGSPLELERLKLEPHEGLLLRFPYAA

Row | IC50 | Structure (SMILES)
1 | 0.103 ± 0.015 µM | Nc1cc(COc2c(Cl)cc(C[C@H](N)C(=O)O)cc2Cl)c2oc(-c3ccccc3)nc2c1 [JPH203]
2 | 91 ± 39 µM | NC1(C(=O)O)CC2CCC1C2 (centres unmarked) [BCH, 2-aminobicyclo-(2,2,1)-heptane-2-carboxylic acid]
